Like-named read-outs stand apart in the source and are kept apart here.
Assays:
BaF3_EGFR LR/CS cells = assay: Biological Activity Assay D: BaF3 cell proliferation assay, EGFR L858R/C797S mutant (BaF3 LR/CS); type: cell-based; conditions: Ba/F3 EGFR, read-out: BaF3 LR/CS IC50
BaF3_EGFR d19/CS cells = assay: Biological Activity Assay D: BaF3 cell proliferation assay, EGFR exon 19 deletion/C797S (BaF3 d19/CS); type: cell-based; conditions: Ba/F3 EGFR, read-out: BaF3 d19/CS IC50
[1] = target: recombinant human EGFR exon 19 deletion/C797S double mutant protein (Homo sapiens (Human), UniProt P00533, C797S/DEL746-750); assay: Biological Activity Assay C: biochemical assay against EGFR exon 19 deletion/C797S protein (EGFR d19/CS)
Method in brief: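 IC50 values were fitted with a 4-parameter model to reaction slopes taken from 90 kinetic reads spaced 120 s apart. The Phosphosens sensor/ATP working solution was 40 uM/4 mM, and compound was dosed as 16-point dilutions at 2.5% final DMSO.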

Ba/F3_EGFR WT cells = assay: Biological Activity Assay D: BaF3 cell proliferation assay, EGFR wild-type (BaF3 WT); type: cell-based; conditions: Ba/F3 EGFR, read-out: BaF3 WT IC50
[2] = target: recombinant human EGFR L858R/C797S double mutant protein (Homo sapiens (Human), UniProt P00533, C797S/L858R); assay: Biological Activity Assay B: biochemical assay against EGFR L858R/C797S protein (EGFR LR/CS)
Procedure: In Row A of a 384-well polypropylene plate, was added 48 μL of DMSO. In wells A1 and A24, were added 12 μL of DMSO. […] To a well in Row A were added 12 μL of each 10 mM test compound stock (100% DMSO). […] The final intermediate dilution plate contained 4×16-point compound serial dilutions in assay buffer. The DMSO concentration was 10%. The intermediate compound dilution plate was transferred to the Bravo and the “5 uL dispense into ARP.pro” protocol was run. To the black low volume assay ready plates, were added 5 μL of 40 uM Phosphosens peptide sensor/4 mM ATP working solution to each well. […] To column 24, was added 10 μL of assay buffer. The final DMSO concentration was 2.5%. […] The plates were sealed with the TopSeal-A Plus plate seals. […] Set for 90 cycles with 120 second interval. […] The slope of each curve was constructed using Dotmatics in each well, and each IC50s was calculated using a 4-parameter fit model.

[3] = BaF3_EGFR LR/CS cells, ~72 hours, CellTiter-Glo
[4] = BaF3_EGFR d19/CS cells, ~72 hours, CellTiter-Glo
[5] = Ba/F3_EGFR WT cells, ~72 hours, CellTiter-Glo

Sequence of recombinant human EGFR exon 19 deletion/C797S double mutant protein (P00533 other isoform, or with tags, fused parts or gaps C797S/del 1-668/del 746-750 limits assumed): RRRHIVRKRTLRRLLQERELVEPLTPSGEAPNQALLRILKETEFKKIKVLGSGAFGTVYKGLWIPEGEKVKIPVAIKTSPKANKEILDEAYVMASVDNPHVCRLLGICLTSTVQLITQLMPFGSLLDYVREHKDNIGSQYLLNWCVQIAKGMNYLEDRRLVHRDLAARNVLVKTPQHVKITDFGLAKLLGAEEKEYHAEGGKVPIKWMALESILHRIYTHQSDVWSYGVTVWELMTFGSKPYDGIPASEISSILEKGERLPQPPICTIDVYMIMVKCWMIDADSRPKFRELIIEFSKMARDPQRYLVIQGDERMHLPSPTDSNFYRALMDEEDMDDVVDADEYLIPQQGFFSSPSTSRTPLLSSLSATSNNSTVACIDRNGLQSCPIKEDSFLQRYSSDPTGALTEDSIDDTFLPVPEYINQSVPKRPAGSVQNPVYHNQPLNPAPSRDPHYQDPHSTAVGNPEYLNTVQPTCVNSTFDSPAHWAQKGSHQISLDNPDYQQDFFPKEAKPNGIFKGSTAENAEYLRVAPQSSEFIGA
Sequence of recombinant human EGFR L858R/C797S double mutant protein (P00533 25-1210 C797S/L858R): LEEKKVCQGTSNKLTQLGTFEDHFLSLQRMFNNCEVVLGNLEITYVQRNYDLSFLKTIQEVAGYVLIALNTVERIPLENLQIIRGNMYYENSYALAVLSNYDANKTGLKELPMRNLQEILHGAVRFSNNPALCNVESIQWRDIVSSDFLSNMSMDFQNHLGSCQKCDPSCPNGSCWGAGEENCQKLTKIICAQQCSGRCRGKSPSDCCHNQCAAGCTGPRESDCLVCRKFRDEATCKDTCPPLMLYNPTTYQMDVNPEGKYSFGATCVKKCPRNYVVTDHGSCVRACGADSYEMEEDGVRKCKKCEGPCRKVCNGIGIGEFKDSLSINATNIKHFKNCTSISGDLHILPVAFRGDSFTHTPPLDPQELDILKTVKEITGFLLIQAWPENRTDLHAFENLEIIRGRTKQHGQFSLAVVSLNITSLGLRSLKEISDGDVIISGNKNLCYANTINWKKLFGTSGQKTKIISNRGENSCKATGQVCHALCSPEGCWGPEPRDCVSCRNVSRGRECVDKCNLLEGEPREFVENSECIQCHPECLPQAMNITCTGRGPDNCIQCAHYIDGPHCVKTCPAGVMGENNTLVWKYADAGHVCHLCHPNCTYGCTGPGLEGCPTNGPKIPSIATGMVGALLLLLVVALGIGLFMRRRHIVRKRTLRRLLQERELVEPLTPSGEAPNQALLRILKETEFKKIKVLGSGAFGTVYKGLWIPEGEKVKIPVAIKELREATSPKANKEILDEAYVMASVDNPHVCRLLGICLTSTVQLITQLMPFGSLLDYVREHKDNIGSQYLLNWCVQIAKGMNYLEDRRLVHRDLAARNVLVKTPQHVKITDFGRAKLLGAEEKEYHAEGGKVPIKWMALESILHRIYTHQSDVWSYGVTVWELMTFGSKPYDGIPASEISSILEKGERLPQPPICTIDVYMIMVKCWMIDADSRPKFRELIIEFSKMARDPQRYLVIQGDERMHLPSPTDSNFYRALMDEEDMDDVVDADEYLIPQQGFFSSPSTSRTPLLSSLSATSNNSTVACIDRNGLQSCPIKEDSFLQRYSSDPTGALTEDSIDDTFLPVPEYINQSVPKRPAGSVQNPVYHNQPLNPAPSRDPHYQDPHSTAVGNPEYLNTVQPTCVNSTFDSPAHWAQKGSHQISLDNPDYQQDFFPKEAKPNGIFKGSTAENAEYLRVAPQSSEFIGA

Compound | IC50 (BaF3_EGFR LR/CS cells; [3]) | IC50 (BaF3_EGFR d19/CS cells; [4]) | IC50 [1] | IC50 (Ba/F3_EGFR WT cells; [5]) | IC50 [2] | IC50 (BaF3_EGFR LR/CS cells; 72 h) | IC50 (BaF3_EGFR d19/CS cells; 72 h) | IC50 (Ba/F3_EGFR WT cells; 72 h)
O=S1(=O)CCC(Cn2cc(-c3ncnc4oc(-c5ccccc5)cc34)c(-c3ccc(F)cc3)n2)C1 (racemic) [Example 53, 3-{[3-(4-fluorophenyl)-4-(6-phenylfuro[2,3-d]pyrimidin-4-yl)-1H-pyrazol-1-yl]methyl}-1λ6-thiolane-1,1-dione] | 122 nM | 40.8 nM | 0.538 nM | 2130 nM | 0.462 nM | – | – | –
Fc1ccc(-c2nn(C3CCOC3)cc2-c2ncnc3oc(-c4ccccc4)cc23)cc1 (racemic) [Example 85, 4-[3-(4-Fluorophenyl)-1-(oxolan-3-yl)-1H-pyrazol-4-yl]-6-phenylfuro[2,3-d]pyrimidine] | 27.5 nM | 33.8 nM | 0.39 nM | 1860 nM | 0.58 nM | – | – | –
CS(=O)(=O)N1CCC(n2cc(-c3ncnc4oc(-c5ccccc5)cc34)c(-c3ccc(F)cc3)n2)C1 (racemic) [Example 89, 4-{3-(4-fluorophenyl)-1-[1-(methanesulfonyl)pyrrolidin-3-yl]-1H-pyrazol-4-yl}-6-phenylfuro[2,3-d]pyrimidine] | 19.9 nM | 20.4 nM | 0.3 nM | 373 nM | 0.38 nM | – | – | –
O=S1(=O)CCCC(Cn2cc(-c3ncnc4oc(-c5ccccc5)cc34)c(-c3ccc(F)cc3)n2)C1 (racemic) [Example 115, 3-{[3-(4-Fluorophenyl)-4-(6-phenylfuro[2,3-d]pyrimidin-4-yl)-1H-pyrazol-1-yl]methyl}-1λ6-thiane-1,1-dione] | 31.6 nM | 110 nM | 0.31 nM | 703 nM | 0.41 nM | – | – | –
O=S1(=O)CC[C@@H](n2cc(-c3ncnc4oc(-c5ccccc5)cc34)c(-c3ccc(F)cc3)n2)C1 (single isomer, unassigned) [Example 72] | 26.1 nM | 24.2 nM | 0.36 nM | 1340 nM | 0.65 nM | – | – | –
O=S1(=O)CC[C@H](n2cc(-c3ncnc4oc(-c5ccccc5)cc34)c(-c3ccc(F)cc3)n2)C1 (single isomer, unassigned) [Example 73] | 80.9 nM | 56 nM | 0.48 nM | 2490 nM | 0.77 nM | – | – | –
Fc1ccc(-c2nn([C@@H]3CCOC3)cc2-c2ncnc3oc(-c4ccccc4)cc23)cc1 (single isomer, unassigned) [Example 90] | 36.2 nM | 64.9 nM | 0.24 nM | 1510 nM | 0.51 nM | – | – | –
Fc1ccc(-c2nn([C@H]3CCOC3)cc2-c2ncnc3oc(-c4ccccc4)cc23)cc1 (single isomer, unassigned) [Example 91] | 23.8 nM | 39.9 nM | 0.23 nM | 1280 nM | 0.37 nM | – | – | –
O=S1(=O)CC[C@H](Cn2cc(-c3ncnc4oc(-c5ccccc5)cc34)c(-c3ccc(F)cc3)n2)C1 (single isomer, unassigned) [Example 96] | 73.8 nM | 150 nM | 0.62 nM | 1480 nM | 0.39 nM | – | – | –
O=S1(=O)CC[C@@H](Cn2cc(-c3ncnc4oc(-c5ccccc5)cc34)c(-c3ccc(F)cc3)n2)C1 (single isomer, unassigned) [Example 97] | 39.2 nM | 79.4 nM | 0.34 nM | 1190 nM | 0.33 nM | – | – | –
O=S1(=O)CCC[C@@H](n2cc(-c3ncnc4oc(-c5ccccc5)cc34)c(-c3ccc(F)cc3)n2)C1 (single isomer, unassigned) [Example 99] | 822 nM | 701 nM | 8.51 nM | > 20000 nM | 5.7 nM | – | – | –
O=S1(=O)CCC[C@H](n2cc(-c3ncnc4oc(-c5ccccc5)cc34)c(-c3ccc(F)cc3)n2)C1 (single isomer, unassigned) [Example 100] | 407 nM | 319 nM | 4.23 nM | 13300 nM | 2.76 nM | – | – | –
CS(=O)(=O)N1CC[C@@H](n2cc(-c3ncnc4oc(-c5ccccc5)cc34)c(-c3ccc(F)cc3)n2)C1 (single isomer, unassigned) [Example 101] | 8.69 nM | 4.96 nM | 0.27 nM | 115 nM | 0.39 nM | – | – | –
OCCCn1cc(-c2ncnc3sc(-c4ccccc4)cc23)c(-c2ccc(F)cc2)n1 [Example 68, 3-[3-(4-fluorophenyl)-4-(6-phenylthieno[2,3-d]pyrimidin-4-yl)-1H-pyrazol-1-yl]propan-1-ol] | 203 nM | 723 nM | 2.25 nM | – | 5.49 nM | – | – | –
Fc1ccc(-c2nn(C3COC3)cc2-c2ncnc3oc(-c4ccccc4)nc23)cc1 [Example 80, 7-[3-(4-fluorophenyl)-1-(oxetan-3-yl)-1H-pyrazol-4-yl]-2-phenyl[1,3]oxazolo[5,4-d]pyrimidine] | 143 nM | 388 nM | 3.25 nM | – | 6.38 nM | – | – | –
Cc1nn(C)cc1-c1cc2c(-c3cn([C@H]4C[C@H](C#N)C4)nc3-c3ccc(F)cc3)ncnc2o1 [Example 279, (1r,3r)-3-{4-[6-(1,3-dimethyl-1H-pyrazol-4-yl)furo[2,3-d]pyrimidin-4-yl]-3-(4-fluorophenyl)-1H-pyrazol-1-yl}cyclobutane-1-carbonitrile] | 8.89 nM | 5.64 nM | 0.106 nM | 476 nM | – | – | – | –
Cc1nn(C)c(C(F)F)c1-c1cc2c(-c3cn(CC(C)(C)O)nc3-c3ccc(F)cc3)ncnc2o1 [Example 280, 1-[4-{6-[5-(difluoromethyl)-1,3-dimethyl-1H-pyrazol-4-yl]furo[2,3-d]pyrimidin-4-yl}-3-(4-fluorophenyl)-1H-pyrazol-1-yl]-2-methylpropan-2-ol] | 38.2 nM | 31.7 nM | 0.288 nM | 857 nM | – | – | – | –
CC(C)(O)Cn1cc(-c2ncnc3oc(-c4cccc(F)n4)cc23)c(-c2ccc(F)cc2)n1 [Example 281, 1-{3-(4-fluorophenyl)-4-[6-(6-fluoropyridin-2-yl)furo[2,3-d]pyrimidin-4-yl]-1H-pyrazol-1-yl}-2-methylpropan-2-ol] | – | – | 0.425 nM | – | – | 80.7 nM | 57.1 nM | 1840 nM
Cc1nc(-c2cc3c(-c4cn(CC(C)(C)O)nc4-c4ccc(F)cc4)ncnc3o2)ccc1F [Example 282, 1-{4-[6-(5-fluoro-6-methylpyridin-2-yl)furo[2,3-d]pyrimidin-4-yl]-3-(4-fluorophenyl)-1H-pyrazol-1-yl}-2-methylpropan-2-ol] | 62.9 nM | 40.7 nM | 0.307 nM | 1980 nM | – | – | – | –
CC(C)(O)Cn1cc(-c2ncnc3oc(-c4cccnc4O)cc23)c(-c2ccc(F)cc2)n1 [Example 283, 3-{4-[3-(4-fluorophenyl)-1-(2-hydroxy-2-methylpropyl)-1H-pyrazol-4-yl]furo[2,3-d]pyrimidin-6-yl}pyridin-2-ol] | 9.79 nM | 9.47 nM | 0.113 nM | 657 nM | – | – | – | –
CC(C)(O)Cn1cc(-c2ncnc3oc(-c4cnn5c4OCCC5(C)C)cc23)c(-c2ccc(F)cc2)n1 [Example 284, 1-(4-(6-(7,7-dimethyl-6,7-dihydro-5H-pyrazolo[5,1-b][,3]oxazin-3-yl)furo[2,3-d]pyrimidin-4-yl)-3-(4-fluorophenyl)-1H-pyrazol-1-yl)-2-methylpropan-2-ol] | 11.2 nM | 10.2 nM | 0.203 nM | 1000 nM | – | – | – | –
COc1ncccc1-c1cc2c(-c3cn(CCC#N)nc3-c3ccc(F)cc3)ncnc2o1 [Example 285, 3-{3-(4-fluorophenyl)-4-[6-(2-methoxypyridin-3-yl)furo[2,3-d]pyrimidin-4-yl]-1H-pyrazol-1-yl}propanenitrile] | 4.86 nM | 3.75 nM | 0.228 nM | 321 nM | – | – | – | –
COc1ncccc1-c1cc2c(-c3cn(CC(F)(F)CO)nc3-c3ccc(F)cc3)ncnc2o1 [Example 286, 2,2-difluoro-3-{3-(4-fluorophenyl)-4-[6-(2-methoxypyridin-3-yl)furo[2,3-d]pyrimidin-4-yl]-1H-pyrazol-1-yl}propan-1-ol] | 20.1 nM | 15.8 nM | 0.203 nM | 1110 nM | – | – | – | –
Oc1ncccc1-c1cc2c(-c3cn([C@H]4C[C@@H](F)C4)nc3-c3ccc(F)cc3)ncnc2o1 [Example 287, 3-(4-{1-[(1s,3s)-3-fluorocyclobutyl]-3-(4-fluorophenyl)-1H-pyrazol-4-yl}furo[2,3-d]pyrimidin-6-yl)pyridin-2-ol] | 8.63 nM | 8.85 nM | 0.213 nM | 613 nM | – | – | – | –
